The NIST ThermoML archive (doi:10.1021/acs.jced.5b00613)

Details: Liquid, Vibrating tube method

CCCCCC [hexane]
mass density [kg/m3]
Details | 100 kPa | 1000 kPa | 5000 kPa | 10000 kPa | 20000 kPa | 30000 kPa | 40000 kPa | 50000 kPa | 60000 kPa
278.15 K | 673.3 | 673.9 | 677.6 | 681.8 | 689.6 | 696.8 | 703.2 | 709.2 | 715
298.15 K | 656.1 | 655.9 | 660.1 | 665.1 | 673.9 | 681.9 | 689 | 695.5 | 701.7
323.15 K | 631.7 | 633.1 | 638.2 | 644.2 | 654.7 | 663.9 | 671.9 | 679.3 | 686.1
348.15 K | – | 608.5 | 614.9 | 622.1 | 634.6 | 645.2 | 654.4 | 662.6 | 670.2
373.15 K | – | 582.6 | 591 | 600 | 614.8 | 627 | 637.4 | 646.6 | 654.9
423.15 K | – | 521.2 | 536.9 | 551.5 | 573.2 | 589.7 | 603.2 | 614.6 | 624.8
463.15 K | – | – | 484.2 | 508.5 | 538.9 | 559.8 | 575.9 | 589.3 | 600.7

CCCCCCCCCCCC [dodecane]
mass density [kg/m3]
Details | 100 kPa | 1000 kPa | 5000 kPa | 10000 kPa | 20000 kPa | 30000 kPa | 40000 kPa | 50000 kPa | 60000 kPa
278.15 K | 759.2 | 760.5 | 763.1 | 766.2 | 771.9 | 777.3 | 782.3 | 787.1 | 791.7
298.15 K | 745.6 | 746.2 | 749 | 752.4 | 758.7 | 764.7 | 770.1 | 775.3 | 780.2
323.15 K | 727.2 | 728.2 | 731.4 | 735.3 | 742.6 | 749.2 | 755.2 | 760.9 | 766.3
348.15 K | 708.7 | 709.6 | 713.4 | 717.8 | 726.1 | 733.5 | 740.2 | 746.4 | 752.3
373.15 K | – | 690.8 | 695.2 | 700.4 | 709.8 | 718.1 | 725.6 | 732.5 | 738.9
423.15 K | – | 652.6 | 658.7 | 665.6 | 677.6 | 688 | 697 | 705.3 | 712.8
463.15 K | – | – | 627.9 | 636.9 | 651.8 | 664.2 | 674.8 | 684.1 | 692.6
